# Test results reported in PubChem BioAssay (NCI).
#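 The compound was tested at five concentrations on cells cultured in 96-well plates, with a 48-hour exposure period. The concentration for 50% growth inhibition is given as GI50. The concentration for full growth arrest is given as TGI.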
# What was measured:
# Assay in all cases: DTP human tumour cell line panel, 48 h
# [1] = test system: SN12C renal
# [2] = test system: UO-31 renal
# [3] = test system: OVCAR-4 ovarian
# [4] = test system: NCI-H23 lung
# [5] = test system: HCT-15 colon
# [6] = test system: SF-295 CNS
# [7] = test system: UACC-257 melanoma
# [8] = test system: SNB-19 CNS
# [9] = test system: CAKI-1 renal
# [10] = test system: NCI-H522 lung
Structure (SMILES),GI50 [1],TGI [1],GI50 [2],TGI [2],GI50 [3],TGI [3],GI50 [4],TGI [4],GI50 [5],TGI [5],GI50 [6],TGI [6],GI50 [7],TGI [7],GI50 [8],TGI [8],GI50 [9],TGI [9],GI50 [10],TGI [10]
CCCCCCCCCCN1CCC(N2CCCCC2)CC1,4.81 µM,19.3 µM,1 µM,2.8 µM,6.61 µM,20.7 µM,3.35 µM,14.5 µM,1.38 µM,3.73 µM,1.96 µM,4.2 µM,1.76 µM,3.24 µM,3.95 µM,14.5 µM,1.66 µM,3.94 µM,1.93 µM,5.54 µM
Cn1c(=O)c2c(ncn2CC(=O)Nc2ccc(-c3ccccc3)nn2)n(C)c1=O,> 100 µM,> 100 µM,> 100 µM,> 100 µM,> 100 µM,> 100 µM,> 100 µM,> 100 µM,> 100 µM,> 100 µM,> 100 µM,> 100 µM,> 100 µM,> 100 µM,> 100 µM,> 100 µM,> 100 µM,> 100 µM,> 100 µM,> 100 µM
O=C(O)CN(c1ccccc1)S(=O)(=O)c1ccc([N+](=O)[O-])cc1,,> 100 µM,,> 100 µM,,> 100 µM,,> 100 µM,,> 100 µM,,> 100 µM,,> 100 µM,,> 100 µM,,> 100 µM,,> 100 µM
O=C(OCc1ccc2c(Cl)cc(Cl)c(O)c2n1)N1CCN(C(=O)c2cc3cc(F)ccc3[nH]2)CC1,1.15 µM,> 100 µM,2.59 µM,> 100 µM,5.37 µM,> 100 µM,2.25 µM,> 100 µM,1.14 µM,> 100 µM,9.49 µM,> 100 µM,> 100 µM,> 100 µM,4.13 µM,> 100 µM,0.905 µM,> 100 µM,0.303 µM,> 100 µM
COCOc1ccc(C2(O)Oc3cc(OCOC)ccc3C2C)c(O)c1 (centres undefined),,30 µM,,23.8 µM,,32.1 µM,,23.9 µM,,22.3 µM,,29 µM,,24.5 µM,,29.4 µM,,30.4 µM,,32.8 µM
Cc1cc(C(C)(C)C)cc(Cc2cc(C(C)(C)C)cc(Cc3cc(C(C)(C)C)cc(C)c3O)c2O)c1O,,33.6 µM,,25.9 µM,,20.2 µM,,21.7 µM,,24.3 µM,,29.4 µM,,20.8 µM,,26 µM,,25.6 µM,,13.2 µM
CC1C(c2ccc3c(c2)OCO3)c2cc3c(cc2OC1N1CCOCC1)OCO3 (centres undefined),,> 100 µM,,85 µM,,> 100 µM,,> 100 µM,,> 93.7 µM,,> 93 µM,,> 100 µM,,86.5 µM,,> 82.7 µM,,31.1 µM
Nc1ccccc1SC1CC(=O)N(c2ccc(Cl)c(Cl)c2)C1=O (centres undefined),28.5 µM,> 100 µM,11.7 µM,45 µM,19.2 µM,> 100 µM,23.8 µM,> 100 µM,28.6 µM,> 100 µM,10.1 µM,> 100 µM,31.8 µM,> 100 µM,31.6 µM,> 100 µM,21.7 µM,> 100 µM,19.4 µM,> 100 µM
O=C(CSC(c1ccccc1)c1ccccc1)N/N=C/c1ccco1,17.2 µM,35.7 µM,2.03 µM,10.3 µM,1.73 µM,6.49 µM,1.6 µM,4.46 µM,2.12 µM,4.38 µM,2.4 µM,12.5 µM,,0.935 µM,36 µM,> 100 µM,4.7 µM,23.2 µM,1.4 µM,4.49 µM
OCC(O)CNc1ccnc2cc(Cl)ccc12 (centres undefined),,> 100 µM,,> 100 µM,,> 100 µM,,> 100 µM,,> 100 µM,,> 100 µM,,> 100 µM,,> 100 µM,,> 100 µM,,> 100 µM
COC1=C(Br)C(=O)c2nc(C)ccc2C1=O,,29.1 µM,,32.4 µM,,26.3 µM,,27 µM,,27.7 µM,,34.7 µM,,26.6 µM,,> 55.1 µM,,29.3 µM,,15.8 µM
CC1=CC(=O)C(C(O)(C(F)(F)F)C(F)(F)F)C(C)(C)C1 (centres undefined),,> 10 µM,,> 10 µM,,> 10 µM,,> 10 µM,,> 10 µM,,> 10 µM,,> 10 µM,,> 10 µM,,> 10 µM,,> 10 µM
CC1CN1c1c(C(=O)/C=C/c2ccc(Cl)cc2)c(-c2ccccc2)nn(C)c1=O (centres undefined),,8.45 µM,,> 10 µM,,7.52 µM,,6.97 µM,,3.55 µM,,> 10 µM,,> 10 µM,,> 10 µM,,> 10 µM,,5.99 µM
COc1ccc2c3c(Nc4ccc(/C(C)=N/O)cc4)[nH]c4ccccc4c-3c(N=O)c2c1,7.06 µM,23 µM,18.5 µM,35.5 µM,28.4 µM,68.2 µM,4.59 µM,18.2 µM,1.81 µM,4.56 µM,9.11 µM,38.9 µM,3.08 µM,8.56 µM,22.9 µM,51.9 µM,2.65 µM,6.01 µM,18.9 µM,41.9 µM
COC(=O)/C(=C\c1ccc(N(CCC#N)CCC#N)cc1)NC(=O)c1cc([N+](=O)[O-])ccc1Cl,,> 100 µM,,> 100 µM,,> 100 µM,,> 100 µM,,> 100 µM,,> 100 µM,,> 100 µM,,> 100 µM,,> 100 µM,,> 100 µM
O=C(N/N=C/c1ccc([N+](=O)[O-])o1)c1ccc(O)cc1,4.03 µM,> 100 µM,23.7 µM,> 100 µM,1.72 µM,4.51 µM,2.97 µM,11.4 µM,4.06 µM,25.4 µM,4.26 µM,> 100 µM,4.97 µM,18.8 µM,5.39 µM,> 100 µM,7.26 µM,> 100 µM,6.59 µM,26.7 µM
